Source: BindingDB's records for doi:10.1002/cbic.200900750 (University of Toronto, 2010)

Target: T1, Alpha-mannosidase 2 (Drosophila melanogaster, UniProt Q24451)
T1 sequence (Q24451 whole entry): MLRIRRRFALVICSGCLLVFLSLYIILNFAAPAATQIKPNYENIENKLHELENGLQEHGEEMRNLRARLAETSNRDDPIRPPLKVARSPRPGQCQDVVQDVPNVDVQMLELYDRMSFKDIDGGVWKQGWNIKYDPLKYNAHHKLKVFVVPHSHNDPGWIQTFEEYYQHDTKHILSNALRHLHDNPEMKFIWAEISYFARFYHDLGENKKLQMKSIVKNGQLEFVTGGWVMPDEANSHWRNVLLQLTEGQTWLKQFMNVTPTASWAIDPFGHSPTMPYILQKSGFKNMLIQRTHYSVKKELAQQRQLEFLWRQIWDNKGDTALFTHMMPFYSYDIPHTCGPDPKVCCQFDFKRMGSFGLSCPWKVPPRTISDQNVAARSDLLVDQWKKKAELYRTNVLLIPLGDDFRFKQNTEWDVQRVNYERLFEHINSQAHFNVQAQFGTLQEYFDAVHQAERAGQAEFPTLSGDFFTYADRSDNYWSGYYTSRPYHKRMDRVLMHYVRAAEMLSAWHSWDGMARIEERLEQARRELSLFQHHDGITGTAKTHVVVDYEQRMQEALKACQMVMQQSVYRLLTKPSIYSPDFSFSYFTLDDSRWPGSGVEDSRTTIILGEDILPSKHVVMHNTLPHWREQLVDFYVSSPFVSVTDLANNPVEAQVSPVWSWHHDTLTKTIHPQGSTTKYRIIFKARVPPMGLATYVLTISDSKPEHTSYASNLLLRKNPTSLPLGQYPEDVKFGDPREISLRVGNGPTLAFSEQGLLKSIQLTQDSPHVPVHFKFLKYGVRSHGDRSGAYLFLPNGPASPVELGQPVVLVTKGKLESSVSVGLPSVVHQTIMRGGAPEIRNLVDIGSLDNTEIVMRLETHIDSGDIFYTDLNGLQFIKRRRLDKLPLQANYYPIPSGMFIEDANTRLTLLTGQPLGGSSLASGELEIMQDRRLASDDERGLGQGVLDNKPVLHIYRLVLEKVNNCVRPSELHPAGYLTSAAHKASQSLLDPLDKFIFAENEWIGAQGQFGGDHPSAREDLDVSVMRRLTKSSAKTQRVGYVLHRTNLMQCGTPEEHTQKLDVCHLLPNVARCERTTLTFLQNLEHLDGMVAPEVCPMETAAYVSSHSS
Assay: Inhibition Assay
Conditions: pH 5.75; 25 °C

| SMILES | IC50 [µM] | Ki [µM] |
| --- | --- | --- |
| O[C@H]1[C@H]2[C@H](O)CCCN2C[C@H]1O [(-)-swainsonine] | 0.037 | 0.003 |
| O=C(C[C@H]1CC[C@@H](O)C2[C@H](O)[C@H](O)CN21)c1ccccc1 (stereo not given in full) [Swainsonine derivative, 2] | 0.03 | – |
| Cc1ccc(C(=O)C[C@H]2CC[C@@H](O)C3[C@H](O)[C@H](O)CN32)cc1 (stereo not given in full) [Swainsonine derivative, 3] | 0.029 | – |
| CC(C)(C)c1ccc(C(=O)C[C@H]2CC[C@@H](O)C3[C@H](O)[C@H](O)CN32)cc1 (stereo not given in full) [Swainsonine derivative, 4] | 0.029 | – |
